# Measurements reported in ChEMBL document CHEMBL3886836, “Amides as pim inhibitors” (2016).
# pIC50: −log10 of the molar value.
# Columns and labels:
# [1] = biological target: T1, Serine/threonine-protein kinase pim-1 (Homo sapiens, UniProt P11309); experiment: The phosphorylation of biotinylated-BAD (S112) peptide by full length recombinant Pim-1, Pim-2, or Pim-3 protein was detected with streptavidin:Allophycocyanin (APC) conjugate and a europium (Eu) labeled antibody directed against phosphorylated-BAD (S112). […] The fluorescence is directly proportional to the amount of phosphorylated BAD peptide present in the reaction. […] The Reaction Buffer consisted of 45 mM Hepes, pH 7.0, 15 mM NaCl, and 1 mM MgCl. The quench/detection buffer consisted of 50 mM Tris, 100 mM NaCl, 0.05% BSA, 0.1% Tween and 3 mM EDTA. Biotinylated BAD peptide (Biopeptide), 10 mM ATP (Sigma), Labeled p-BAD (S112) mAb (Cell Signalling and Perkin Elmer) [with 0.05% BSA and 2 mM DTT added] streptavidin:Allophycocyanin [Perkin Elmer]. […] Initial incubations were carried out at RT (22° C.) for 30 min for both Pim-1 and for Pim-2. Pim enzyme is added to compound in buffer, and plates are incubated of 30 min. Biotinylated BAD and ATP are added and plates are incubated for 1 h. A mixture of labeled p-BAD (S112) mAb and quench/detection buffer are added and incubated for 2 h. Fluorescence was measured by an HTRF® Envision microplate reader.
# [2] = biological target: T2, Serine/threonine-protein kinase pim-2 (Homo sapiens, UniProt Q9P1W9); experiment: Homogeneous Time Resolved Fluorescence Assay (HTRF): The assay for the determination of Pim activity is based on the formation of phosphorylated biotinylated-BAD peptide at the Serine 112 residue (S112) and employs HTRF® (homogeneous time resolved fluorescence) technology to detect the product in a 384-well plate format. The phosphorylation of biotinylated-BAD (S112) peptide by full length recombinant Pim-1, Pim-2, or Pim-3 protein was detected with streptavidin:Allophycocyanin (APC) conjugate and a europium (Eu) labeled antibody directed against phosphorylated-BAD (S112). Excitation of Eu by a high energy laser light (337 nm) leads to a transfer of energy to the APC molecule, and results in an emission at 665 nm. The fluorescence is directly proportional to the amount of phosphorylated BAD peptide present in the reaction. […] A reference compound was included on each assay plate [Costar 3658] in order to validate that plate; on one plate of every assay run, two additional reference compounds were included. The Reaction Buffer consisted of 45 mM Hepes, pH 7.0, 15 mM NaCl, and 1 mM MgCl. The quench/detection buffer consisted of 50 mM Tris, 100 mM NaCl, 0.05% BSA, 0.1% Tween and 3 mM EDTA. Biotinylated BAD peptide (Biopeptide), 10 mM ATP (Sigma), Labeled p-BAD (S112) mAb (Cell Signalling and Perkin Elmer) [with 0.05% BSA and 2 mM DTT added] streptavidin:Allophycocyanin [Perkin Elmer]. Final concentrations either Pim-1 enzyme [5 pM], or Pim-2 enzyme [0.5 pM], DMSO [1%], BLC BAD (S112) [0.5 μM], ATP [1.5 μM], streptavidin:Allophycocyanin [0.002 mg/mL] and biotinylated-BAD (S112) mAb [100 pM]. Initial incubations were carried out at RT (22° C.) for 30 min for both Pim-1 and for Pim-2. Pim enzyme is added to compound in buffer, and plates are incubated of 30 min. Biotinylated BAD and ATP are added and plates are incubated for 1 h. A mixture of labeled p-BAD (S112) mAb and quench/detection buffer are added and incubated for 2 h. Fluorescence was measured by an HTRF® Envision microplate reader.
# [3] = biological target: T1, Serine/threonine-protein kinase pim-1; experiment: (§1) Homogeneous Time Resolved Fluorescence Assay (HTRF): The assay for the determination of Pim activity is based on the formation of phosphorylated biotinylated-BAD peptide at the Serine 112 residue (S112) and employs HTRF® (homogeneous time resolved fluorescence) technology to detect the product in a 96-well plate format. The phosphorylation of biotinylated-BAD (S112) peptide by full length recombinant Pim-1, Pim-2, or Pim-3 protein was detected with streptavidin:Allophycocyanin (APC) conjugate and a europium (Eu) labeled antibody directed against phosphorylated-BAD (S112). Excitation of Eu by a high energy laser light (337 nm) leads to a transfer of energy to the APC molecule, and results in an emission at 665 nm. The fluorescence is directly proportional to the amount of phosphorylated BAD peptide present in the reaction. […] A reference compound was included on each assay plate in order to validate that plate; on one plate of every assay run, two additional reference compounds were included. The final buffer conditions were as follows: 60 mM Hepes, pH 7.0, 0.05% BSA, 2 mM DTT. Incubations were carried out at RT (22° C.) for 2 h for Pim-1, 1 hour and 30 min for Pim-3, and 45 min for Pim-2. The reaction was stopped by the addition of 3 mM EDTA, and fluorescence was measured by an HTRF® Rubystar microplate reader.
# [4] = biological target: T2, Serine/threonine-protein kinase pim-2; experiment: as §1
pIC50 [1],pIC50 [2],pIC50 [3],pIC50 [4],SMILES
9.36,8.95,,,CC(C)(C)Nc1ccc2cccc(-c3cc4c([nH]3)CCNC4=O)c2n1
,9.71,,,Cn1c(NC(C)(C)C)nc2c(-c3cc4c([nH]3)CNC4=O)cccc2c1=O
8.22,,,,Cc1nc2cccc(-c3cc4c([nH]3)CCNC4=O)c2nc1-c1c(F)cccc1Cl
7.01,6.73,,,Cc1nc2cccc(-c3cc4c([nH]3)CCNC4=O)c2nc1-c1cccnc1Cl
8.70,8.74,,,Nc1nc2cccc(-c3cc4c([nH]3)CCNC4=O)c2nc1Oc1ccccc1
7.99,7.48,,,Cc1nc2cccc(-c3cc4c([nH]3)CCNC4=O)c2nc1-c1ccc(N)cc1Cl
9.52,9.10,,,CC1(C)CCCN1c1cnc2cccc(-c3cc4c([nH]3)CCNC4=O)c2n1
7.29,,,,Cc1nc2cccc(-c3cc4c([nH]3)CCNC4=O)c2nc1-c1cnccc1Cl
,,8.15,7.24,O=C1NCCc2[nH]c(-c3cccc4ccc(N[C@H]5CC[C@H](O)CC5)nc34)cc21
8.21,7.64,,,Cc1nc2cccc(-c3cc4c([nH]3)CCNC4=O)c2nc1NC(C)(C)C(N)=O
9.40,9.10,,,CC1(C)CCN1c1cnc2cccc(-c3cc4c([nH]3)CCNC4=O)c2n1
7.99,8.11,,,Cc1nc2cccc(-c3cc4c(n3C)C(CO)NC4=O)c2nc1NC(C)(C)C (racemic)
8.63,8.67,,,Cc1nc2cccc(-c3cc4c([nH]3)C(CO)NC4=O)c2nc1NC(C)(C)C (racemic)
8.92,8.74,,,Cc1nc2cccc(-c3cc4c([nH]3)CCNC4=O)c2nc1NC(C)C(C)C (racemic)

SMILES,pIC50 [1],pIC50 [2],pIC50 [3],pIC50 [4]
Cc1nc2cccc(-c3cc4c([nH]3)CCNC4=O)c2nc1N[C@H]1C[C@@H](N(C)C)C1,8.70,8.40,,
Cc1nc2cccc(-c3cc4c([nH]3)CCNC4=O)c2nc1N[C@H]1C[C@@H](N2CCOCC2)C1,8.22,,,
Cc1nc2cccc(-c3cc4c([nH]3)CCNC4=O)c2nc1NC(C)(C)CCS(C)(=O)=O,6.63,7.01,,
Cc1nc2cccc(-c3cc4c([nH]3)CCNC4=O)c2nc1N[C@H]1C[C@@H](NCC(F)F)C1,8.70,8.70,,
Cc1nc2cccc(-c3cc4c([nH]3)CCN/C4=N/O)c2nc1NC(C)(C)C,8.05,7.92,,
